The source of these data is US20090318376A1, “High Throughput Screening Method of Binding Inhibitor Between caspase3 and XIAP and Binding Inhibitor Screened Thereby” (Korea Research Institute of Bioscience and Biotechnology, priority 2006, published 2009).

The target in experiment [1] is T1, binding between caspase3 and xIAP (Homo sapiens, UniProt P98170).
T1 construct: made in house; host or cells: E. coli BL21
Briefly: protein chip (CI-chip) SPR imaging screening of inhibitors of interaction between caspase3 and xIAP. The settings on record: within the range from 50 to 400 μM; FIG. 3. The text has this:
Whether the obtained proteins bind to the gold chip having L-glutathione on the surface thereof, was pre-experimented. After a bacteria cell extract containing 20% glycerol, in which GST-tag-fused cas3 (29) obtained in Example 1-1 has been over-expressed, was dispersed in 384 microwell plate, it was spotted on the gold chip having L-glutathione on the surface thereof with a pin having a diameter of 335 μm under a constant humidity of 75% using automatic robotic arrayer(proteogen, CM-1000), and then subjected to RT shaking incubation for 3 hours, thus constructing Cl-chip having gold chip as a substrate.
Inhibitors of interaction between caspase3 and xIAP were screened using the protein chip based on the gold chip prepared in example 1. 920 microorganism-derived samples, which was purely isolated or partially purified, were reacted with 15 μl solution (3.75 μl of more than 50% glycerol; 3 μl of material dissolved in DMSO at a concentration of less than 10 mg/ml; 7.5 μl of xIAP dissolved in PBS at a concentration of more than 1 mg/ml; 0.75 μl of PBS buffer) at 4° C. for 2 hours to apply to the protein chip. Inhibitory activity was analyzed using SPR imaging as the concentration of protein in solution was increased (FIG. 3).

Experiment [2] deals with T2, binding of caspase3 and xIAP (Homo sapiens, UniProt P98170).
T2 construct: made in house; host or cells: E. coli BL21
T2 sequence (P98170 whole entry): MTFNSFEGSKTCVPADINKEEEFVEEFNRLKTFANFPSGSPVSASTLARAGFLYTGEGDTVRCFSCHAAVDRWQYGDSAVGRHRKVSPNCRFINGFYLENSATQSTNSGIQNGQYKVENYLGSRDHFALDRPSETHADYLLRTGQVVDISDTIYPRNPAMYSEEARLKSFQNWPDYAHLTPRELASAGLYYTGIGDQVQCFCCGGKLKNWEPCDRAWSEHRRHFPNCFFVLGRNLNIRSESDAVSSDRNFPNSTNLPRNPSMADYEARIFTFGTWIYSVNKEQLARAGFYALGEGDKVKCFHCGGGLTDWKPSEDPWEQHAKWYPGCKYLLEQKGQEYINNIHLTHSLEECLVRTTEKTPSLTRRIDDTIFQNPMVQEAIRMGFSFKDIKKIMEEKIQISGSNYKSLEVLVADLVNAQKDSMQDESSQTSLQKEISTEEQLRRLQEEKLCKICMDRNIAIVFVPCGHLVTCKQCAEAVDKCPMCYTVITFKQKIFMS
The experiment in a line: pull down assay using tagged MBP. The settings on record: chromomycin increased from 50 μM to 200 μM; MBP resin, SDS PAGE; FIG. 4. The protocol: In order to examine whether chromomycin, screened in the example 2, is activated by the reaction of caspase3 and xIAP, pull down assay using tagged MBP (Maltose Binding Protein) was performed. After xIAP and chromomyicin were added to MBP resin and allowed to react on ice for 2 hours, the resulting mixture was added with caspase3 and allowed to react for about 3 hours, and then washed with PBS buffer solution to load onto 10% SDS PAGE, thus examining the reactant (FIG. 4).

Experiment [3] has as its system breast cancer cell line MDA-MB-231. Briefly: inhibition of proliferation of cancer cell lines (WST-8). It counts as cell-based. The settings on record: Homo sapiens, WST-8, over 24 hours treatment, read-out: IC 50 (proliferation). As for the experimental part: (§1) To examine inhibition of proliferation of the cell lines, the cancer cell lines HCT 116 (Mecoy's 5A medium), SW620 (RPMI 1640) and MDA-MB-231 (RPMI 1640) were cultured to disperse in a 96 well plate. SW620 and HCT116 were innoculated at a concentration of 7,000 cells/100 μl, and MDA-MB-231 was innoculated at a concentration of 5,000 cells/100 μl, respectively, and cultured overnight, followed by an additional reaction of over 24 hours after treating with 1 μl chromomycin prepared according to the concentration. Next, the resulting cells were added with 10 μl of WST-8, counted with an ELISA reader at 450 nm after 2 hours and calculated as a percentage of comparative control added only with DMSO. Inhibitory concentration (IC50), with respect to proliferation of cell lines MDA-MB -231, HCT116, SW620, was measured within the concentration range from 0 to 1 µg/ml by dissolving chromomycin in DMSO (Table 1).
(Formazan colour is commonly taken as a measure of viable cells.)

Experiment [4] has as its system colorectal cancer cell line SW620. The experiment is described as above. It counts as cell-based. As to conditions: Homo sapiens, SW-620, WST-8, over 24 hours treatment, read-out: IC 50 (proliferation). As for the experimental part: as §1
Experiment [5] relates to colorectal cancer cell line HCT116. Described as above. It counts as cell-based. As to conditions: Homo sapiens, HCT-116, WST-8, over 24 hours treatment, read-out: IC 50 (proliferation). The protocol:
as §1

Each structure is given as a SMILES string.

T1 sequence (P98170 whole entry): as above

In the case of `COC1C(O)CC(OC2CC(Oc3cc4cc5c(c(O)c4c(O)c3C)C(=O)[C@@H](OC3CC(OC4CC(OC6CC(C)(O)C(OC(C)=O)C(C)O6)C(O)C(C)O4)C(O)C(C)O3)[C@H]([C@H](OC)C(=O)[C@@H](O)[C@@H](C)O)C5)OC(C)C2OC(C)=O)OC1C` (some centres unmarked) [Chromomycin], the “inhibition reaction in the protein chip (SPR imaging)” value in experiment [1] is given as “constant inhibition reaction concentration-dependently”. The “resulting reactant of xIAP (MX) and caspase3 (Cas3) in pull down assay” value in experiment [2] is reported as “reduced”. The figures for the IC50 in experiment [3], in experiment [4] and in experiment [5] were 8.4 nM, 80 nM and 6.7 nM, respectively.
